Test results from patent publication US10098895B2, “Treatment of symptoms related to neurodegenerative disorders through pharmacological dermal activation of cranial nerves” (GLIA, LLC, priority 2016, dated 2018).

How the values were obtained:
[1] = test system: Parkinson's disease symptoms; assay: Example 1: Parkinson's disease patient, dermal application to forehead and ear conchae
Description: A person was diagnosed with the early stages of Parkinson's disease in December of 2014. Their symptoms included tremors in the hands, impaired short term memory, slow and uncontrolled rigid movements while walking and eating, and declining ocular blink function. The patient also had dry eyes with hyper-tearing, burning, and itching.
The patient was also treated with progesterone 1% on the forehead initially once daily beginning in March 2015. […] The progesterone was applied as needed for about a year.
Instead of the prescribed regimen, the patient began dermal application of dronabinol 1.25 mg 2 times daily to three sites: (i) the forehead, (ii) the concha of the left ear, and (iii) the concha of the right ear. Each dose of 1.25 mg was divided equally between the three application sites. This treatment regimen began Friday Jun. 10, 2016 concurrent with the discontinuation of rasagiline.
In February 2017, the patient, who suffers from debilitating moderate spinal stenosis, started taking Azilect (rasagiline) and carbidopa-levodopa to improve their walking and flexibility. […] The patient decided that, together with the prescribed medications, they would switch from dronabinol to topical testosterone gel applied to the forehead and ear conchae to see if this would impact their longstanding low testosterone levels.
In March 2017, topical testosterone gel application was instituted as an adjunct to is the prescribed Azilect and carbidopa-levodopa.
The patient voluntarily stopped topical testosterone for 3 weeks in June 2017. […] At the end of 3 weeks, topical testosterone was re-instituted as an adjunct to the prescribed medications.

chronic ocular GVHD [2] = assay: Example 4: chronic ocular GVHD, progesterone 1% to the forehead; assay type: in vivo, human; conditions: after 4 weeks
Excerpt: A patient with chronic ocular GVHD, upon examination, had numerous ocular surface conditions as well as damaged Meibomian glands and ocular disease behind the eye. There was notable ocular surface disease including no visible production of tear film observed by Tearscope, profuse exudate in eyes, lid sticking, and recurring filamentary keratitis.

chronic ocular GVHD [3] = assay: Example 6: third case of chronic ocular GVHD, Tearscope examination; assay type: in vivo, human; conditions: progesterone 1% to forehead, single dose
Description: A patient with chronic ocular GVHD was examined and found to have ocular surface disease in both eyes, including filamentary keratitis. Upon examination by Tearscope there was a lack of tear film production evident in both eyes along with pronounced filaments in the left eye. They were treated with progesterone 1% to their forehead and re-examined 50 minutes later by Tearscope.

essential tremor = assay: Example 7: essential tremor subject with contact lens discomfort; assay type: in vivo, human
Description: A person developed persistent right hand tremors of a kinetic (non-resting) type that has been continuous over the past 6 years. […] This condition had not worsened over time. […] Initially, their doctor thought that these symptoms were stress related and they have been taking 2.5 mg of escitalopram for over 6 years. […] The subject was not on hormone replacement therapy or any other medication.
Concomitantly, the subject suffered from uncomfortable eyes, with a sticky burning sensation and development of blurred vision after about 5-6 hours of contact lens wear. For the past 3 years, the subject was administered 1% progesterone gel (1 mg per day) by dermal application to the forehead once per night. The progesterone gel prolonged comfortable contact lens wear time with sustained visual acuity from 5-6 hours to greater than 15 hours. […] After 2 years of treatment, the benefits of progesterone dermal application persisted for at least 3 days without treatment. There was no effect of the progesterone on their tremor symptoms.
After allowing for washout of progesterone for 3 days, they began forehead application of 0.5-0.75 mg dronabinol once daily at night.
The dronabinol administration regimen was altered by dividing equally the once daily dose of 0.5-0.75 mg dronabinol between the conchae of the left ear, the conchae of the right ear, and the forehead. […] Comfortable contact lens wear, with ease of insertion and removal, and visual acuity extends for 15 hours or more after dronabinol application.
Contact lens comfort wear duration was greater than 15 hours.
In April 2017, the subject, while still being treated with 1% progesterone applied to the forehead, instituted a once-daily low dose topical testosterone applied to the forehead and ear conchae to determine if doing so would produce a beneficial impact on further tremor reduction and in particular essential tremor triggered by caffeine consumption. […] They stopped the treatment to assess whether the tremor would return to pre-testosterone treatment levels. As of August 2017, the subject is without noticeable tremor. The caffeine trigger for tremor onset, which had been recognized throughout all treatments, has not re-appeared since the completion of the 4-week testosterone treatment. The subject continues on low-dose progesterone 1% applied daily to the forehead as the only treatment.

[4] = test system: herpes ophthalmicus and herpes keratitis; assay: Example 8: herpes ophthalmicus and herpes keratitis patient; assay type: in vivo, human
Excerpt: A patient experienced an episode of herpes ophthalmicus and herpes keratitis in September 2003, resulting in thinning melt of the left cornea, loss of vision, inflammation, neuralgia, and a rash of blisters to the left forehead, upper nose, and temple with a subsequent full left-face palsy droop, which required multiple cosmetic surgical procedures to provide some symmetry to the face and partial closure to the eyelids of the left eye.
No corneal graft to the left eye could be attempted due to recurrent thinning of the full cornea and inflammation of the vasculature. The patient was treated with ophthalmic prednisolone, topical and systemic antivirals, topical antibiotics, bandage lens, punctal plugs, and over-the-counter artificial tears and gels. This treatment regimen was continued until January 2011 when the cornea thinned to probable melt-through, necessitating corneal patch surgery. Just prior to the surgery, the patient's vision was measured at 20/2000, or finger vision.
The patient started applying 1% progesterone to their forehead twice daily just before corneal patch surgery planned for January 2011. The dose of progesterone was approximately 1 mg per application.
In September 2014, corneal tissue had sufficiently epithelialized at the perimeter to attempt a corneal graft, which was successfully completed. Progesterone 1% was applied daily to the forehead post-surgery. Within 9 months vision was restored to best correct vision pinhole 20/50.
In February 2015, the patient's visual acuity decreased as a result of the rejection of cells at the lower part of the graft. Moderate central staining continued to persist in a band where eyelids could not close. Intraocular pressure (TOP) in the left eye rose to 22 mmHg. The patient was placed on a treatment regimen that included Prednisolone Forte 6× plus Restasis for rejection 2× daily and oral valacycovir, together with mechanically taping the eyelid closed at night.
In May 2016, the patient initiated a course of twice daily dronabinol treatment, 0.5 mg each dose, to both ears. Through July, stabilization was achieved, and all other medications were discontinued. […] Visual acuity improved to 20/40.

[5] = progesterone 0.5% to the concha of both ears

routine mammography and serum hormone levels (essential tremor; human, in vivo): normal
SMILES: CC(=O)[C@H]1CC[C@H]2[C@@H]3CCC4=CC(=O)CC[C@]4(C)[C@H]3CC[C@]12C [progesterone]
adverse events ([1]; human, in vivo): no adverse events were noted | ocular symptoms of burning and itching ([1]; progesterone 1% on the forehead, initially once daily, then as needed, on oral rasagiline): relieved their ocular symptoms of burning and itching | dry eye disease symptoms ([1]; progesterone 1% to the forehead once every week, July 2016 to August 2017): fully manage dry eye disease symptoms | exudate in both eyes (chronic ocular GVHD [2]): noticeable decrease in exudate | lid sticking and friction (chronic ocular GVHD [2]): improvement in lid sticking and friction | tear film production by Tearscope (chronic ocular GVHD [2]): tear film production was observed | comfort, patient-reported (chronic ocular GVHD [3]): improved comfort | filaments in the left eye (chronic ocular GVHD [3]; 50 minutes later): flushing of the filaments in the left eye | tear film production by Tearscope (chronic ocular GVHD [3]; 50 minutes later): production of tear film in secretions in both eyes | tremor symptoms (essential tremor; 1% progesterone gel (1 mg per day) to forehead): no effect | comfortable contact lens wear time with sustained visual acuity (essential tremor; 1% progesterone gel (1 mg per day) to forehead once per night, from 5-6 hours before): greater than 15 hours | persistence of benefits without treatment (essential tremor; after 2 years of progesterone dermal application to forehead): at least 3 days | adverse events (essential tremor; human, in vivo): no adverse events | comfortable contact lens wear (essential tremor; low dose progesterone 1% to the forehead only, daily, 12 months up to August 2017): 15 h | tremor on maintenance treatment (essential tremor; maintenance dose of progesterone 1% to forehead after testosterone course): tremor-free | contact lens comfort wear duration (essential tremor; [5]): greater than 15 hours | hand tremor (essential tremor; [5]): subsided to the same degree as it did with dronabinol treatment | corneal thinning ([4]; 1% progesterone to forehead twice daily, approximately 1 mg per application, from January 2011): corneal thinning stabilized | best correct vision pinhole ([4]; Progesterone 1% daily to forehead after corneal graft, within 9 months): 20/50 | corneal melt-through ([4]; progesterone treatment continued over two years): without corneal melt-through | tear film breakup and meibomian glands ([4]; when using Progesterone 1%): tear film breakup was normal and meibomian glands functioned well
